Assay [1] concerns the target T1, hKv1.3 (Homo sapiens, UniProt P22001).
T1 construct: endogenous in cells
It is filed as cell-based. To be noted: for inhibition of whole-cell current at block equilibrium: 200 pM toxin, hKv1.3.
Procedure: The human venous blood from anonymized healthy donors was obtained from a blood bank. The peripheral blood mononuclear cells were isolated through Histopaque1077 (Sigma-Aldrich Hungary, Budapest, Hungary) density gradient centrifugation. Cells obtained were resuspended in RPMI 1640 medium containing 10% fetal calf serum (Sigma-Aldrich), 100 µg/ml penicillin, 100 µg/ml streptomycin, and 2 mM L glutamine, seeded in a 24-well culture plate at a density of 5 x 10^5 cells per ml, and grown in a 5% CO2 incubator at 37°C for 2–5 days. Phytohemagglutinin A (Sigma-Aldrich) was added in 5, 7, and 10 µg/ml concentrations to the medium to boost the potassium ion channel expression.
(§8) Electrophysiological measurements were performed by using the patch-clamp technique in whole-cell or outside-out patch configuration and voltage clamp mode using the Multiclamp 700B amplifier and Axon Digidata1440 digitizer (Molecular Devices, Sunnyvale, CA). Micropipettes were pulled from GC150F-15 borosilicate capillaries (Harvard Apparatus Kent, United Kingdom), resulting in 3–5 MΩ resistance in the bath solution. The extracellular solution contained 145 mM NaCl, 5 mM KCl, 1 mM MgCl2, 2.5 mM CaCl2, 5.5 mM glucose, and 10 mM HEPES, with a pH of 7.35 and an osmolarity between 302 and 308 mOsM/L. When the toxins were dissolved at different molar concentrations in bath solution, it was supplemented with 0.1 mg/ml of BSA. The pipette filling (intracellular) solution consisted of 140 mM KF, 2 mM MgCl2, 1 mM CaCl2, 10 mM HEPES, and 11 mM EGTA, with a pH of 7.22 and an osmolarity of 295 mOsM/L.
To record the hKv1.3 and hKv1.2 currents, 15- to 200-ms-long depolarization impulses were applied at +50 mV from a holding potential of −120 mV every 15 s. The pClamp 10.1 software package was used to acquire and analyze the measured data. Current traces were low-pass filtered by the analog four-pole Bessel filters of the amplifiers, and the sampling frequency was set at 20 kHz, at least twice that of the filter cutoff frequency. The effect of the toxin at a given molar concentration was calculated as the remaining current fraction (RCF = I/I0, where I0 is the peak current in the absence of the toxin and I is the peak current at equilibrium block at a given toxin concentration). The data points on dose–response curves represent the mean of 3–4 individual measurements. […]
Pharmacological activity of both versions of rMgTx was evaluated by studying their effect on the hKv1.2 and hKv1.3 ion channels. The hKv1.2 current was recorded in CHO cells, which heterologously expressed the hKv1.2 ion channel, and hKv1.3 current was recorded in the human peripheral blood lymphocytes. […]

Assay [2] has as its target T2, hKv1.2 (Homo sapiens, UniProt P16389).
T2 construct: GFP (from vector pCMV6-GFP); host or cells: CHO cells, transient transfection with Lipofectamine 2000
Kind of assay: Patch-clamp block of hKv1.2 current (dose-response / equilibrium block) in transfected CHO cells. It is filed as cell-based. The following applies: for block of whole-cell current at equilibrium: 100 pM toxin, hKv1.2, CHO cells. In general terms: In patch-clamp work, channel activity is measured electrically.
Procedure: as §8
Pharmacological activity of both versions of rMgTx was evaluated by studying their effect on the hKv1.2 and hKv1.3 ion channels. […] A custom-built perfusion system was used to apply toxins at a very small perfusion rate of 200 µl/min. […]

Assay [3] addresses T1, hKv1.3. Kind of assay: Binding and unbinding kinetics (wash-in/washout, patch-clamp) on hKv1.3. The following applies: for koff: Kv1.3, calculated from averaged τ off; for koff / k on: 3-5 independent experiments; for k on: Kv1.3, calculated from averaged τ on and τ off, 200 pM toxin; for τ on: hKv1.3, 200 pM toxin, wash-in, single exponential; for τ on / τ off: n = 4, ± SEM; for τ off: hKv1.3, washout after 200 pM toxin. The protocol: (§1) Electrophysiological measurements were performed by using the patch-clamp technique in whole-cell or outside-out patch configuration and voltage clamp mode using the Multiclamp 700B amplifier and Axon Digidata1440 digitizer (Molecular Devices, Sunnyvale, CA). Micropipettes were pulled from GC150F-15 borosilicate capillaries (Harvard Apparatus Kent, United Kingdom), resulting in 3–5 MΩ resistance in the bath solution. The extracellular solution contained 145 mM NaCl, 5 mM KCl, 1 mM MgCl2, 2.5 mM CaCl2, 5.5 mM glucose, and 10 mM HEPES, with a pH of 7.35 and an osmolarity between 302 and 308 mOsM/L. When the toxins were dissolved at different molar concentrations in bath solution, it was supplemented with 0.1 mg/ml of BSA. The pipette filling (intracellular) solution consisted of 140 mM KF, 2 mM MgCl2, 1 mM CaCl2, 10 mM HEPES, and 11 mM EGTA, with a pH of 7.22 and an osmolarity of 295 mOsM/L.
(§2) To record the hKv1.3 and hKv1.2 currents, 15- to 200-ms-long depolarization impulses were applied at +50 mV from a holding potential of −120 mV every 15 s. The pClamp 10.1 software package was used to acquire and analyze the measured data. Current traces were low-pass filtered by the analog four-pole Bessel filters of the amplifiers, and the sampling frequency was set at 20 kHz, at least twice that of the filter cutoff frequency. The effect of the toxin at a given molar concentration was calculated as the remaining current fraction (RCF = I/I0, where I0 is the peak current in the absence of the toxin and I is the peak current at equilibrium block at a given toxin concentration). The data points on dose–response curves represent the mean of 3–4 individual measurements. The data points were fitted with a three-parameter [inhibition] vs response model, RCF = Bottom + [Top–Bottom)/(1+([toxin]/K d )], where Top and Bottom values were constrained to 1 and 0, respectively, and [toxin] is the concentration of the toxin. The best fit curve gave K d of the given toxin.
(§3) To examine the effect of additional residues of TrMgTx on binding to the ion channel, the association and dissociation rate constants of both the versions of the toxin were determined for the Kv1.3 channel of the activated human T lymphocytes and the hKv1.2 channel transiently expressed in the CHO cell. Whole-cell currents were recorded after applying the toxin (200 pM for Kv1.3 and 100 pM for Kv1.2) to the extracellular solution until the equilibrium block was achieved (wash-in), and then removed it by perfusing the toxin-free control solution (washout). Peak currents at a time point t [I(t)] were normalized to the peak current in the absence of the toxin [Inorm(t) = I(t)/I0], and these were plotted as a function of time. The association time constant (τ on ) was determined by fitting the data points during the wash-in procedure in the one-phase decay equation: Inorm(t)=((1−RCF)×e^−t/τon)+RCF , with the RCF = I/I0 at the equilibrium block as defined in the Electrophysiology section. The dissociation time constant (τ off ) was determined by fitting the following equation to the data points during the washout procedure: Inorm(t)=RCF+(1−e^−t/τoff).
(§4) The association rate constant (k on ) and dissociation rate constant (k off ) were calculated from the measured time constants, assuming a simple bimolecular interaction between the channel and toxin, and by using the following equations ([Peter et al., 2001]), with τon and τoff defined above, and [toxin] as the toxin concentration: kon=1−(τon×koff)/τon×[toxin], koff=1/τoff.

In assay [4] the target is T2, hKv1.2. Put plainly: Binding and unbinding kinetics (wash-in/washout, patch-clamp) on hKv1.2. To be noted: for k on: Kv1.2, calculated from averaged τ on and τ off, 100 pM toxin; for τ on: hKv1.2, 100 pM toxin, wash-in; for τ on / τ off: ± SEM; for recovery from block on washout: hKv1.2, toxin-free solution after 100 pM; for τ off: hKv1.2, washout after 100 pM toxin. As for the experimental part:
CHO cells were transiently transfected with the vector pCMV6-GFP (OriGene Technologies, Germany) encoding the human Kv1.2 ion channel using Lipofectamine 2000 (Invitrogen, Carlsbad, CA), following the manufacturer's protocol, and grown under the standard conditions as used previously ([Bagdány et al., 2005]). GFP-positive transfectants were identified with Nikon TE 2000U fluorescence microscope (Nikon, Tokyo, Japan), and currents were recorded after 24 h post transfection.
as §1, §2, §3, §4

Assay [5] relates to IL2R (CD25) expression in CD4^+ TEM cells. Kind of assay: IL2R (CD25) expression in anti-CD3-stimulated CD4+ TEM lymphocytes (flow cytometry). It is filed as cell-based, human. To be noted: for inhibition of IL2R expression: 24 h anti-CD3 stimulation, three donors, technical duplicates, MFI normalized to stimulated; for effect on upregulation of IL2R expression: ∼100× K d (TrMgTx 8.5 nM, UrMgTx 5 nM), 24 h, anti-CD3. From the text:
(§5) The mononuclear cells were isolated from anonymized healthy donors as described earlier. Prior to CD4^+ TEM cells separation, dead cells were removed using the Dead Cell Removal Microbead Kit (Miltenyi Biotec B.V & CO. KG, Bergisch Gladbach, Germany). Untouched CD4^+ TEM lymphocytes were purified through magnetic cell sorting (negative selection) with the CD4^+ Effector Memory T Cell Isolation Kit (Miltenyi Biotec B.V. & Co. KG, Bergisch Gladbach, Germany) according to the manufacturer's protocol.
(§6) For TCR-specific stimulation, anti-human CD3 monoclonal antibodies (clone OKT3, BioLegend, San Diego, CA) were bound to the surface of 24-well cell culture plates at a density of 5 µg/well in phosphate-buffered saline (PBS) overnight at 4°C. Before seeding the cells, the wells were washed twice with PBS to remove the unbound antibodies. The CD4^+ TEM cells were divided into four groups: 1) unstimulated, 2) stimulated, 3) stimulated + TrMgTx (8.5 nM), and 4) stimulated + UrMgTx (5 nM). The cells were seeded at a density of 0.5×10^6 cells/ml per well, and when indicated, the cells were preincubated with the toxins for 5 min prior to the stimulation. The plate was incubated at 37°C in 5% CO2 for 24 h. Each experiment was performed in technical duplicates on three different donors.
(§7) For quantifying the extent of TEM cell stimulation, cells were washed with PBS buffer containing 1% of fetal bovine serum (FBS) and stained with fluorescein isothiocyanate (FITC)–labeled anti-human CD154 (CD40L) antibody (clones 24–31, BioLegend, San Diego, CA) and PerCP/Cyanine5.5–labeled anti-human CD25 (IL2R) antibody (clone BC96, BioLegend) at 4°C for 20 min. Cells were washed with the PBS + 1% FBS buffer and resuspended in 150 µl in PBS + 1% FBS. Samples were measured with NovoCyte 3000 RYB flow cytometer (ACEA Bioscience Inc.), FITC and PerCP/Cyanine5.5 were excited by using blue laser (488 nm), and 530/30 nm and 695/40 nm emission filters were used, respectively. Flow cytometry data were analyzed using FCS Express 6.0 (De Novo Software, Glendale, CA). Briefly, cells were gated on the basis of their FSC and SSC parameters, and then, the histograms corresponding to CD40L and CD25 were plotted as peak-normalized overlays. Mean fluorescent intensities (MFIs) were computed from the histograms and normalized to that of their stimulated (S) but not treated control. The negative (unlabeled) and unstimulated control (US) were always used for comparison.

Assay [6] concerns CD40L expression in CD4^+ TEM cells. Put plainly: CD40L (CD154) expression in anti-CD3-stimulated CD4+ TEM lymphocytes (flow cytometry). The assay is classed as cell-based, human. The following applies: for CD40L expression of stimulated, treated cells vs unstimulated cells: TrMgTx 8.5 nM or UrMgTx 5 nM; for CD40L expression of stimulated, treated cells vs unstimulated cells / effect on upregulation of CD40L expression: 24 h; for inhibition of CD40L expression: 24 h anti-CD3 stimulation, three donors, technical duplicates, MFI normalized to stimulated; for effect on upregulation of CD40L expression: ∼100× K d (TrMgTx 8.5 nM, UrMgTx 5 nM), anti-CD3.
Excerpt: as §5, §6, §7
In general terms: A flow cytometer gives signals particle by particle.

Bridge positions count the residues as written; N and C are the ends. Ends that are not written are not given here. Peptide text beside a SMILES is read from it.

T1 sequence (P22001 whole entry): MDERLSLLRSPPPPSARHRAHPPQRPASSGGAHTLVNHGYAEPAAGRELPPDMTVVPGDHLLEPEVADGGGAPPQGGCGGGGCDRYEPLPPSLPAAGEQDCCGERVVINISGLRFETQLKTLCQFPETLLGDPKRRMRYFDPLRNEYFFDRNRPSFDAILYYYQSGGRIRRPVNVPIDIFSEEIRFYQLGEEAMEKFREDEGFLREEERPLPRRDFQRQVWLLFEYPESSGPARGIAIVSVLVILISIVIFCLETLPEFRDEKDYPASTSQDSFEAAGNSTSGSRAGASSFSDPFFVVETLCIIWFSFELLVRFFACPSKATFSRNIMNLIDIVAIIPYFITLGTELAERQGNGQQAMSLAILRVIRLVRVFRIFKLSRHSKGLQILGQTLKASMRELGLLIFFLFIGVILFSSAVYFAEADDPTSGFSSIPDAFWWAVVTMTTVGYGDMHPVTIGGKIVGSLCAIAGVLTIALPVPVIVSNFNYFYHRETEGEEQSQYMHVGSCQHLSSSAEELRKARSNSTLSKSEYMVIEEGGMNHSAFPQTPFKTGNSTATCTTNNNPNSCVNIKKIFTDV
T2 sequence (P16389 whole entry): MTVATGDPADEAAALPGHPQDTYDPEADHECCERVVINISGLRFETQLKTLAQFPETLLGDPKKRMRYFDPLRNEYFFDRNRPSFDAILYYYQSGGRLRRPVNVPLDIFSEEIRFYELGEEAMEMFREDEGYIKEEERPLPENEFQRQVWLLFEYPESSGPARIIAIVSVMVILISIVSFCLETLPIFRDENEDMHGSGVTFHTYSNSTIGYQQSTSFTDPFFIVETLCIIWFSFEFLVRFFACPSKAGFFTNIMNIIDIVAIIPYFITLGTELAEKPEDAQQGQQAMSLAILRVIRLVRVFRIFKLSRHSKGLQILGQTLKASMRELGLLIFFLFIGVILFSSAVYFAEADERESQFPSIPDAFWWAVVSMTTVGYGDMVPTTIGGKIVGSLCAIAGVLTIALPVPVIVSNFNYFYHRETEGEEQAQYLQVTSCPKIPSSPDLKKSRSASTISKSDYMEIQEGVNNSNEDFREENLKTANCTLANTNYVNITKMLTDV

By koff is commonly meant a measure of how fast the partners let go of each other. `CC[C@H](C)[C@H](NC(=O)[C@@H](N)[C@@H](C)O)C(=O)N[C@H](C(=O)N[C@@H](CC(N)=O)C(=O)N[C@H](C(=O)N[C@@H](CCCCN)C(=O)N[C@H]1CSSC[C@@H]2NC(=O)[C@H](CCCCN)NC(=O)[C@H](C)NC(=O)CNC(=O)[C@H](C)NC(=O)[C@H](CO)NC(=O)[C@H](CCC(N)=O)NC(=O)CNC(=O)[C@H](Cc3ccccc3)NC(=O)[C@H](CCC(N)=O)NC(=O)[C@H](C)NC(=O)[C@H](CCCCN)NC(=O)[C@@H]3CSSC[C@@H](C(=O)N[C@@H](Cc4ccc(O)cc4)C(=O)N4CCC[C@H]4C(=O)N[C@@H](Cc4c[nH]cn4)C(=O)O)NC(=O)[C@H](CCCCN)NC(=O)[C@H](CSSC[C@H](NC(=O)[C@H](CCC(N)=O)NC(=O)[C@H](CCCCN)NC(=O)[C@@H]4CCCN4C(=O)[C@H](CO)NC(=O)[C@H]([C@@H](C)O)NC1=O)C(=O)N[C@@H](CC(C)C)C(=O)N1CCC[C@H]1C(=O)N1CCC[C@H]1C(=O)N3)NC(=O)[C@H](CCCCN)NC(=O)CNC(=O)[C@H](CC(N)=O)NC(=O)[C@H](CCSC)NC2=O)C(C)C)[C@@H](C)CC` [UrMgTx] (H-TIINVKCTSPKQCLPPCKAQFGQSAGAKCMNGKCKCYPH-OH; disulfide 7-29, 13-34, 17-36; N-terminus and C-terminus assumed): the “inhibition of whole-cell current at block equilibrium” value against hKv1.3 [1] is reported as about 80%. The “block of whole-cell current at equilibrium” value at hKv1.2 [2] is about 90%. Also, at hKv1.3 [3], the koff was 0.00179 s⁻¹, the k on was 3.43e+07 M⁻¹ s⁻¹, the τ on is listed as 116 ± 10 s and the τ off is on record as 560 ± 28 s. At hKv1.3 [3] (hKv1.3, unpaired t test, n = 4, p < 0.001), the “k on compared with TrMgTx” value is given as “significantly higher”. At hKv1.2 [4] (3-5 independent experiments), the k on was 4.62e+07 M⁻¹ s⁻¹. Moreover, on hKv1.2 [4], the τ on stood at 191 ± 12 s; the “recovery from block on washout” value was “slow and partial recovery”; the τ off was 1308 ± 351 s. In addition, on hKv1.2 [4] (hKv1.2, unpaired t test, n = 3-4, p < 0.001), the “k off compared with TrMgTx” value is “substantially lower”. Moreover, the “k on compared with TrMgTx” value on hKv1.2 [4] (hKv1.2, unpaired t test, n = 3-4, p < 0.01) is given as “slightly higher”. The “inhibition of IL2R expression” value in assay [5] (UrMgTx 5 nM) is listed as about 45%. Also, the “effect on upregulation of IL2R expression” value in assay [5] is reported as “significantly reduced”. In addition, in assay [6], the “CD40L expression of stimulated, treated cells vs unstimulated cells” value was “comparable to that of unstimulated cells” and the “effect on upregulation of CD40L expression” value is “significantly reduced”. For the same compound, the “inhibition of CD40L expression” value in assay [6] (UrMgTx 5 nM) is about 45%.
In the case of “EFHHHHHHLQIEGRTIINVKCTSPKQCLPPCKAQFGQSAGAKCMNGKCKCYPH (disulfide 21-43, 27-48, 31-50) [TrMgTx]”, the “inhibition of whole-cell current at block equilibrium” value on hKv1.3 [1] is reported as about 70%. In addition, at hKv1.3 [1] (hKv1.3, dose-response), the “potency relative to UrMgTx” value is listed as “slightly less potent”. Further, the “block of whole-cell current at equilibrium” value on hKv1.2 [2] was “about 60%”. On hKv1.2 [2] (hKv1.2, dose-response), the “potency relative to UrMgTx” value is “nearly fivefold less potent”. Also, at hKv1.3 [3], the koff is 0.00179 s⁻¹, the k on is 2.14e+07 M⁻¹ s⁻¹, the τ on amounted to 168 ± 19 s and the τ off is reported as 568 ± 84 s. Besides, on hKv1.3 [3] (hKv1.3), the “association rate, fold lower than UrMgTx” value was about 1.6 fold. Besides, the koff on hKv1.2 [4] (Kv1.2, calculated from averaged τ off, 3-5 independent experiments) was 0.0019 s⁻¹. Also, on hKv1.2 [4] (3-5 independent experiments), the k on is 3.05e+07 M⁻¹ s⁻¹. In addition, the “association rate, fold lower than UrMgTx” value on hKv1.2 [4] (hKv1.2) is recorded as about 1.6 fold. In addition, at hKv1.2 [4], the τ on was 202 ± 2.3 s, the “recovery from block on washout” value is listed as “slow but full recovery” and the τ off was determined as 532 ± 69 s. Also, in assay [5] (TrMgTx 8.5 nM), the “inhibition of IL2R expression” value is reported as about 39%. For the same compound, the “effect on upregulation of IL2R expression” value in assay [5] was “significantly reduced”. In addition, in assay [6], the “CD40L expression of stimulated, treated cells vs unstimulated cells” value is “comparable to that of unstimulated cells” and the “effect on upregulation of CD40L expression” value was “significantly reduced”. In addition, the “inhibition of CD40L expression” value in assay [6] (TrMgTx 8.5 nM) is about 36%.
With charybdotoxin [reference compound], the “reduction in peak current, positive control” value with hKv1.2 [2] (14 nM charybdotoxin, hKv1.2, data not shown) was “Around 50%”.
